Measured values published in EP0412158A1, “ONCOSTATIC DRUG” (priority 1987, dated 1988).

Experiments:
[1] = system: methyl cholanthrene A; experiment: Methyl cholanthrene A tumor, evaluation by elongation of period of survival (Examples 17 to 20); assay type: in vivo, female BALB/C mice; conditions: 100 mg/kg ×9
Protocol: The aforementioned active compounds, E to H, were severally dissolved in distilled water to obtain aqueous solutions containing the compounds in a fixed concentration of 10 mg/ml. To female BALB/C mice (five weeks old) to which methyl cholanthrene A had been transplanted in a ratio of 1.0 x 10^5 cells per mouse, the aqueous solutions were continuously administered at a dose of 100 mg/kg of body weight for nine days by intraperitoneal injection to determine the mices periods of survival. For comparison, mice to which no aqueous solution was administered and mice to which aminonitrosourea was administered were similarly tested.

[2] = system: methyl cholanthrene A tumor; experiment: Methyl cholanthrene A tumor, evaluation by weight of tumor (Examples 13 to 16); assay type: in vivo, female BALB/C mice; conditions: for Average weight of tumor / Number of tumorless mice /total number of mice / T/control: 100 mg/kg; for Average weight of tumor / Number of tumorless mice /total number of mice: ip × 9; for T/control: ip×9, tumor weight
Protocol: Compound E, an alkali metal salt of polymolybdic acid (Example 13), and other compounds (Compounds F to H) mentioned above were severally dissolved in distilled water to obtain aqueous solutions containing the compounds in a fixed concentration of 10 mg/ml. These aqueous solutions were administered to female BALB/C mice (five weeks old) to which methyl cholanthrene A tumor had been transplanted to test the compounds for antineoplastic activity. To be morespecific, the methyl cholanthrene A was transplanted to the mice in a ratio of 1.0 x 10^5 cells per mouse and the aqueous solution was continuously administered (at a dose of 100 mg/kg of body weight) for nine days by intraperitoneal injection. On elapse of 14 days after the stop of the administration, the tumors in the mice were weighed. For comparison, mice to which the aqeuous solution was not administered and the mice to which aminonitrosourea was administered were similarly tested.

SMILES | Average number of days of survival [1] | Number of toxically killed mice/total number of mice [1] | Ratio of prolonging life [1] [%] | Average weight of tumor [2] | Number of tumorless mice /total number of mice [2] | T/control [2] | toxicity ([2]; 100 mg/kg.ip for nine days, judged by increase of body weight, result in words)
O.O.O.O.[Na+].[Na+].[Na+].[Na+].[Na+].[Na+].[O]=[Mo](=[O])([O-])[O][Mo](=[O])(=[O])[O][Mo](=[O])([O-])([O-])[O][Mo](=[O])(=[O])[O][Mo](=[O])([O-])([O-])[O][Mo](=[O])(=[O])[O][Mo](=[O])(=[O])[O-] [Compound F, Na6 [Mo7O24] • 4H2O] | 35.0±5.7(8) days | 0/8 | 55.6 | 1592.8±257.6(8) mg | 0/8 | 0.618 | 
O.O.O.O.[Li+].[Li+].[Li+].[Li+].[Li+].[Li+].[O]=[Mo](=[O])([O-])[O][Mo](=[O])(=[O])[O][Mo](=[O])([O-])([O-])[O][Mo](=[O])(=[O])[O][Mo](=[O])([O-])([O-])[O][Mo](=[O])(=[O])[O][Mo](=[O])(=[O])[O-] [Compound G, Li6 [Mo7O24] • 4H2O] | 31.6±5.4(8****) days | 0/8 | 40.4 | 1760±254.6(8) mg | 0/8 | 0.683 | 
O.O.O.O.[K+].[K+].[K+].[K+].[K+].[K+].[O]=[Mo](=[O])([O-])[O][Mo](=[O])(=[O])[O][Mo](=[O])([O-])([O-])[O][Mo](=[O])(=[O])[O][Mo](=[O])([O-])([O-])[O][Mo](=[O])(=[O])[O][Mo](=[O])(=[O])[O-] [Compound E, K6 [Mo7O24] • 4H2O] | 35.5±2.2(8) days | 0/8 | 57.8 | 1281.6±184.2(8) mg | 0/8 | 0.498 | very slight toxicity
O.O.O.O.[Cs+].[Cs+].[Cs+].[Cs+].[Cs+].[Cs+].[O]=[Mo](=[O])([O-])[O][Mo](=[O])(=[O])[O][Mo](=[O])([O-])([O-])[O][Mo](=[O])(=[O])[O][Mo](=[O])([O-])([O-])[O][Mo](=[O])(=[O])[O][Mo](=[O])(=[O])[O-] [Compound H, Cs6 [Mo7O24] • 4H2O] | 32.9±5.5(8) days | 0/8 | 46.2 | 1599.5±340.6(8) mg | 0/8 | 0.621 | 
